{
  "source": "patent USRE39593E1",
  "about": "(Gruenenthal GmbH, priority 1994, dated 2007)",
  "note": "Where a name gives a salt, the structure may show the parent alone.",
  "data": [
    {"system": "phenylquinone-induced writhing reaction", "experiment": "Phenylquinone-induced writhing test on mice", "type": "in vivo", "conditions": "Mus musculus, male NMRI mice; 25 mg/kg per os, 30 min before phenylquinone i.p.", "protocol": "(§1) The analgesic effectiveness of the compounds according to the invention was investigated in the phenylquinone-induced writhing test, modified according to I. C. Hendershot, J. Forsaith in J. Pharmacol. Exptl. Ther. 125, 237 (1959), on mice. Male NMRI mice with a weight between 25 and 30 g were used for this purpose. For each dose of substance, each 10 animals received, 30 minutes after the oral administration of a compound according to the invention, 0.3 ml per mouse of an 0.02% aqueous phenylquinone solution (phenylbenzoquinone manufactured by Sigma, Deisenhofen; solution prepared with the addition of 5% ethanol and kept on a water bath at 45° C.) administered intraperitoneally. Thereafter the animals were placed individually in observation cages. The number of pain-induced stretching movements (writhing reaction-straightening of the body with stretching of the rear extremities) was counted with the aid of a push-button counter. The Ed50 value (effective dose with 50% inhibition of writhing reaction) was calculated with a 95% confidence limit by means of regression analysis (evaluation program supplied by Martens EDV-Service, Eckental) from the dose-dependent decrease in the writhing reaction, by comparison with mice tested in parallel to which only phenylquinone had been administered.", "units": {"inhibition at 25 mg/kg": "%"}, "values": [
      {"smiles": "CC[C@](O)(c1cccc(OC(C)C)c1)[C@H](C)CN(C)C", "note": "(racemic) [(3), (2RS,3RS)-3-(3-isopropoxyphenyl)-1-dimethylamino-2-methylpentan-3-ol Hydrochloride]", "inhibition at 25 mg/kg": 81.3},
      {"smiles": "CC[C@](O)(c1cccc(O)c1)[C@H](C)CN(C)C", "note": "(racemic) [(16), (2RS,3RS)-3-(3-dimethylamino-1-ethyl-1-hydroxy-2-methylpropyl)-phenol Hydrochloride]", "inhibition at 25 mg/kg": 100},
      {"smiles": "COc1cccc([C@](C)(O)[C@H](C)CN(C)C)c1", "note": "[(+15), Hydrochloride]", "inhibition at 25 mg/kg": 95.2},
      {"smiles": "C[C@H](CN(C)C)[C@@](C)(O)c1cccc(O)c1", "note": "[(+17), (+)-(1R,2R)-3-(3-dimethylamino-1-hydroxy-1,2-dimethylpropyl)-phenolhydrochloride]", "inhibition at 25 mg/kg": 97.2},
      {"smiles": "C[C@@H](CN(C)C)[C@](C)(O)c1cccc(O)c1", "note": "[(−17), (−)-(1S,2S)-3-(3-dimethylamino-1-hydroxy-1,2-dimethylpropyl)-phenol Hydrochloride]", "inhibition at 25 mg/kg": 58.3}
    ]},
    {"system": "phenylquinone-induced writhing reaction", "experiment": "Phenylquinone-induced writhing test on mice", "type": "in vivo", "conditions": "Mus musculus; male NMRI mice; oral administration 30 min before phenylquinone i.p.; dose with 50% inhibition of writhing reaction", "protocol": "as §1", "units": {"ED50": "mg/kg"}, "values": [
      {"smiles": "CC[C@](O)(c1cccc(OC)c1)[C@H](C)CN(C)C.Cl", "note": "(racemic) [(1), (2RS,3RS)-1-dimethylamino-3-(3-methoxyphenyl)-2-methylpentan-3-ol Hydrochloride]", "ED50": 5.8},
      {"smiles": "CC[C@](O)(c1ccc(Cl)c(Cl)c1)[C@H](C)CN(C)C.Cl", "note": "(racemic) [(2), (2RS,3RS)-3-(3,4-dichlorophenyl)-1-dimethylamino-2-methylpentan-3-ol Hydrochloride]", "ED50": 13.2},
      {"smiles": "CC[C@](O)(c1cccc(Cl)c1)[C@H](C)CN(C)C.Cl", "note": "(racemic) [(4), (2RS,3RS)-3-(3-chlorophenyl)-1-dimethylamino-2-methylpentan-3-ol Hydrochloride]", "ED50": 15.5},
      {"smiles": "CC[C@](O)(c1cccc(C(F)(F)F)c1)[C@H](C)CN(C)C.Cl", "note": "(racemic) [(5), (2RS,3RS)-1-dimethylamino-2-methyl-3-(3-trifluoromethylphenyl)-pentan-3-ol Hydrochloride]", "ED50": 8.3},
      {"smiles": "CC[C@](O)(c1cccc(C)c1)[C@H](C)CN(C)C.Cl", "note": "(racemic) [(6), (2RS,3RS)-1-dimethylamino-2-methyl-3-(3-m-tolyl)-pentan-3-ol Hydrochloride]", "ED50": 11.8},
      {"smiles": "CC[C@](O)(c1cccc(F)c1)[C@H](C)CN(C)C.Cl", "note": "(racemic) [(7), (2RS, 3RS)-1-dimethylamino-3-(3-fluorophenyl)-2-methylpentan-3-ol Hydrochloride]", "ED50": 27.3},
      {"smiles": "CC[C@](O)(c1cccc(C(F)F)c1)[C@H](C)CN(C)C.Cl", "note": "(racemic) [(8), (2RS,3RS)-3-(3-difluoromethylphenyl)-1-dimethylamino-2-methylpentan-3-ol Hydrochloride]", "ED50": 12.9},
      {"smiles": "CC[C@](O)(c1cccc(SC)c1)[C@H](C)CN(C)C.Cl", "note": "(racemic) [(9), (2RS,3RS)-1-dimethylamino-2-methyl-3-(3-methylsulphanylphenyl)-pentan-3-ol Hydrochloride]", "ED50": 12.8},
      {"smiles": "CC[C@](O)(c1ccc2ccoc2c1)[C@H](C)CN(C)C.Cl", "note": "(racemic) [(10), (2RS,3RS)-3-benzofuran-6-yl-1-dimethylamino-2-methylpentan-3-ol Hydrochloride]", "ED50": 12.9},
      {"smiles": "CCCC(O)(CCN(C)C)c1cccc(OC)c1.Cl", "note": "(racemic) [(12), (3RS)-1-dimethylamino-3-(3-methoxyphenyl)-hexan-3-ol Hydrochloride]", "ED50": 19.9},
      {"smiles": "COc1cccc(C(O)(CCN(C)C)C(C)(C)C)c1.Cl", "note": "(racemic) [(14), (3RS)-1-dimethylamino-3-(3-methoxyphenyl)-4,4-dimethylpentan-3-ol Hydrochloride]", "ED50": 10.5},
      {"smiles": "COc1cccc([C@](C)(O)[C@H](C)CN(C)C)c1", "note": "(racemic) [(15), Hydrochloride]", "ED50": 3.8},
      {"smiles": "CC[C@](O)(c1cccc(OC)c1)[C@H](C)CN(C)C", "note": "[(+1), (+)-(2R,3R)-1-dimethylamino-3-(3-methoxyphenyl)-2-methylpentan-3-ol Hydrochloride]", "ED50": 1.1},
      {"smiles": "CC[C@](O)(c1cccc(O)c1)[C@H](C)CN(C)C", "note": "[(+16), (+) (2S,3S 1R,2R)-3-(dimethylamino-1-ethyl-1-hydroxy-2-methylpropyl)-phenol Hydrochloride]", "ED50": 1},
      {"smiles": "CC[C@](F)(c1cccc(O)c1)[C@H](C)CN(C)C.Cl", "note": "[(+18), (+)-(1R,2R)-3-(3-dimethylamino-1-ethyl-1-fluoro-2-methylpropyl)-phenol Hydrochloride]", "ED50": 15.7},
      {"smiles": "CC[C@H](c1cccc(O)c1)[C@H](C)CN(C)C.Cl", "note": "[(+21), (+)-(1S,2R 2S)-3-(3-dimethylamino-1-ethyl-2-methylpropyl)-phenol hydrochloride]", "ED50": 1.9},
      {"smiles": "CC[C@@](O)(c1cccc(OC)c1)[C@@H](C)CN(C)C", "note": "[(−1), (−)-(2S,3S)-1-dimethylamino-3-(3-methoxyphenyl)-2-methylpentan-3-ol Hydrochloride]", "ED50": 22.3},
      {"smiles": "CC[C@@](O)(c1cccc(O)c1)[C@@H](C)CN(C)C", "note": "[(−16), (-) (2S,3S) 1S,2S)-3-(dimethylamino-1-ethyl-1-hydroxy-2-methylpropyl)-phenol Hydrochloride]", "ED50": 16.1}
    ]}
  ]
}
